The subject of the experiment is INS-1E Gaussia luciferase insulin secretion, no glucose, luminescence. As to the kind of experiment: insulin secretion activators without glucose, dose response, counter-screen for glucose-dependent insulin secretion activators, cell-based, INS-1E, Gaussia luciferase, luminescence, cherry-pick (AID 977606). For orientation: A counterscreen serves to expose hits that act by an unwanted route or on another target.

Values joined by “and” are separate entries in the source; they are usually repeats but may differ in a detail not shown here. Identical values can stand only once. Active and inactive are the calls of the source. How the calls were made is not given here.

AC40 data for 66 molecules are collected here from PubChem BioAssay AID977606 (Broad Institute, 2014).

Regarding `COc1cc2nc(N3CCN(c4cc(C)ccc4C)CC3)nc(N)c2cc1OC`, the AC40 is 8.68 µM. As to `Cc1cc(OCCCN2CCC(C(O)(c3ccccc3)c3ccccc3)CC2)ccc1Br`, the AC40 is 3.84 µM. In the case of `CCOc1nc(-c2ccccc2)c2cc(Br)ccc2n1`, the AC40 is 21.9 µM. With `CS(=O)(=O)N(Cc1ccc(Cl)cc1)c1ccc(C(=O)NCCC2=CCCCC2)cc1`, the AC40 is 6.78 µM.

As for `C/C(=N\NC(=O)c1cccc(Br)c1)c1ccc(Br)cc1`, the AC40 was 13 µM.

In the case of `Cc1ccc(F)cc1-c1nc(NC(C)C)nc2cc(-c3ccccc3)sc12`, the AC40 was 13.6 µM. Consider `CCOc1ccc(/C=N/NC(=O)c2cc(-c3ccco3)nc3ccccc23)cc1`, for which the AC40 was 6.73 µM. For `CC1(Cc2ccc(C(F)(F)F)o2)C(=O)Nc2ccc(-c3cccc(C(F)(F)F)c3)cc21` (stereo unspecified) the value was 5.92 µM; for `CCOc1ccc2nc(NCCNC(=O)Nc3ccccc3)c(C#N)cc2c1`, 8.22 µM; for `Cc1cc(C)nc(Nc2n[nH]c(COc3ccc4ccccc4c3)n2)n1`, 6.18 µM. Consider `CCOC(=O)Cn1c(=NC(=O)c2nc3ccccc3s2)sc2cc(S(N)(=O)=O)ccc21`, for which the AC40 was 18.3 µM. Turning to `Cc1ccc(CC2(OCCN(C)C)CCC(C(C)(C)C)CC2)cc1` (stereo unspecified), the AC40 is 5.45 µM. As for `COc1ccc2c(c1)CCc1c(C(=O)Nc3cc(C)n(Cc4ccc(Cl)cc4)n3)noc1-2`, the AC40 was 1.86 µM.

As to `COc1ccc(/C=N/N(C(C)=O)c2nc(-c3ccc(C)cc3)cs2)cc1`, the AC40 is 1.98 µM. Take `c1ccc(Cn2nnc3c(N4CCc5ccccc54)ncnc32)cc1`: the AC40 is 6.35 µM. In the case of `COc1cc(CNCCc2ccccc2)cc(Cl)c1OCc1ccccc1`, the AC40 is 7.96 µM. Turning to `CC(C)(c1ccccc1)c1ccc(OCC(O)CNC2CCN(Cc3ccccc3)CC2)cc1` (stereo unspecified), the AC40 is 5.4 µM. Consider `O=C1CCc2cc(S(=O)(=O)N3CCN(c4ccc(F)cc4)CC3)cc3c2N1CC3`, for which the AC40 is > 35 µM (inactive). For `CCCCc1c(-c2ccccc2OC)ncn1CCc1ccccc1` the value was 9.48 µM. For `COc1ccc(-c2cccc(C(=O)Nc3ccc(C)cc3)c2)cc1` the value was 13.6 µM; for `CC(C)(C)c1ccc(OCC(=O)Nc2ccc(-c3nc4cccnc4o3)cc2)cc1`, 7.74 µM; for `COc1cccc(-c2ccc(C3[C@@H]4CN(Cc5cccc(F)c5)C[C@H]3N4)cc2)c1` (stereo partly specified), 7.22 µM. For `CCCc1cc(-c2nc(-c3ccc(C)cc3)cs2)ccn1` the value was 7.92 µM; for `C[C@H](CO)N1C[C@H](C)[C@@H](CN(C)C(=O)Cc2ccccn2)Oc2cc(C#C[C@@H](C)O)ccc2S1(=O)=O`, 18 µM; for `CCOC(=O)c1ccccc1NC(=O)c1n[nH]c(=O)c2ccccc12`, 3.05 µM. Take `O=C(Nc1ccc2ccccc2c1)c1cccc2ccccc12`: the AC40 is 3.25 µM.

As for `Cc1cc(Cl)ccc1Oc1nc(-c2ccccc2)ncc1S(C)(=O)=O`, the AC40 was 3.04 µM. Turning to `COc1ccc2c(c1)C(=NNC(=O)c1ccccn1)c1cc(OC)ccc1-2`, the AC40 is 2.66 µM. Next, `CCOc1ccc(-c2nnn(CC(=O)Nc3ccccc3OC)n2)cc1OCC`: 7.27 µM; `O=S(=O)(c1ccccc1F)N1C[C@@H]2N[C@H](C1)C2c1ccc(/C=C/c2ccccc2)cc1` (stereo partly specified): 7.12 µM; `Cc1ccc(-c2ccc(C3[C@@H]4CN(C(=O)Nc5ccc(C(F)(F)F)cc5)C[C@H]3N4)cc2)cc1` (stereo partly specified): 1.17 µM and 2.2 µM. Consider `CCCCc1c(-c2ccccc2OC)ncn1Cc1ccc(C)cc1`, for which the AC40 was 11.9 µM. With `CCC(C)Sc1cccc(-c2nc3cnccn3c2NC2CCCCC2)c1` (stereo unspecified), the AC40 is 4.26 µM.

In the case of `O=C(Nc1ccc(SC(F)F)cc1)c1cccc2nc3ccccc3nc12`, the AC40 is 10.2 µM. As to `COc1ccc(C)c2sc(N(CCCN(C)C)C(=O)c3ccc(S(=O)(=O)N4CCc5ccccc5C4)cc3)nc12`, the AC40 is 3.62 µM. As for `O=C(NCCC1=CCCCC1)C(=O)NCC(c1ccco1)N1CCN(c2ccccc2)CC1` (stereo unspecified), the AC40 is 3.54 µM. For `CCOC(=O)c1c(NC(=O)c2ccoc2C)sc(C(=O)N(C)C)c1C` the value was > 35 µM (inactive). Take `COc1cc2ccccc2cc1C(=O)Nc1ccc2oc(=O)ccc2c1`: the AC40 is 9.12 µM.

Take `Cc1nn(Cc2ccc(Cl)cc2Cl)c(Cl)c1C(=O)Nc1ccc(OC(F)F)cc1`: the AC40 was 5.64 µM. Consider `O=C(Nc1ccc(C(F)(F)F)cc1)N1[C@@H]2CNC[C@H]1C2c1ccc(/C=C/c2ccccc2)cc1` (stereo partly specified), for which the AC40 is 7.54 µM. Next, `COC(=O)C1=C(C)N(Cc2ccc(C(F)(F)F)cc2)C(=NCc2ccccc2)NC1c1ccc(Cl)cc1` (stereo unspecified): 10.8 µM. For `COc1ccc(C(=O)Nc2ccc3c(c2)C(=O)c2ccccc2C3=O)cc1OC` the value was > 35 µM (inactive); for `Cc1nc2ccccc2c2oc(C(=O)N3CCCC(C)C3)cc12` (stereo unspecified), 16 µM. With `COCCn1c(=NC(=O)c2cc(Cl)sc2Cl)sc2cc(S(N)(=O)=O)ccc21`, the AC40 was 6.07 µM. As to `COC(=O)C1=C(C)N(Cc2cccc(C(F)(F)F)c2)C(=NCc2ccc(C(F)(F)F)cc2)NC1c1ccccc1` (stereo unspecified), the AC40 is 8.93 µM.

Take `CCCNC(=O)c1nnsc1S(=O)(=O)c1ccc(Cl)cc1`: the AC40 is 1.15 µM. `COc1ccccc1C(=O)NC(=S)NC12CC3CC(CC(C3)C1)C2`: the AC40 is 7.67 µM. With `COc1ccccc1C(=O)Nc1c2c(nn1-c1cccc(C)c1C)CS(=O)(=O)C2`, the AC40 is 13 µM. Take `CCOC(=O)CN1C(=O)[C@]2(OCCC=C[C@H]2C)c2ccccc21`: the AC40 is 13 µM. For `C=CCNC(=S)N/N=C/c1ccc(-c2cc(Cl)ccc2Cl)o1` the value was 4.34 µM; for `CCC(=O)Nc1ccc(NC(=S)NC(=O)c2oc3ccccc3c2C)cc1`, 3.36 µM. `COC(=O)c1sccc1NC(=O)COc1ccc(Cl)cc1Cl`: the AC40 was 6.02 µM.

`Cc1cccc(-c2ccc(C3[C@@H]4CN(Cc5cccc(F)c5)C[C@H]3N4)cc2)c1` (stereo partly specified): the AC40 is 4.33 µM and 2.3 µM. In the case of `Cc1cc(C)n(-c2nc(NCCN(C)C)c3c4c(sc3n2)CCCC4)n1`, the AC40 is 10.7 µM. For `Cc1nc(NC(=O)c2cccc(-c3cc4ccccc4oc3=O)c2)ccc1Br`, the AC40 is 7.19 µM. Regarding `COC(=O)C1=C(C)N(Cc2cccc(C(F)(F)F)c2)C(=NCc2ccc3c(c2)OCO3)NC1CCc1ccccc1` (stereo unspecified), the AC40 is 6.1 µM. For `NC(=O)c1ccc2nc(-c3ccccc3)c(-c3ccccc3)nc2c1`, the AC40 was 19.8 µM. Next, `O=c1c2cc(F)ccc2sn1-c1ccccc1Cl`: 1.35 µM; `CCOc1ccc2ccc(OCC)c(/C=N/n3cnnc3)c2c1`: 34.8 µM; `Cc1cccc(OCC(=O)Nc2ccc(NC(=O)c3ccco3)cc2)c1`: 12.4 µM.

`CCCCCCN1C[C@H](n2cc(COC(=O)c3ccccc3)nn2)[C@@H](O)C[C@@H]1c1ccc(C)cc1`: the AC40 was 8.37 µM. In the case of `O=C(N/N=C\c1ccc(CNS(=O)(=O)c2ccc(Cl)cc2)o1)C(=O)Nc1ccc(Oc2ccccc2)cc1`, the AC40 was 1.8 µM.

Regarding `O=C(NCC1OCCc2ccccc21)c1ccc(NC(=O)c2ccc(Cl)cc2)cc1` (stereo unspecified), the AC40 was 6.61 µM. Regarding `COc1ccc(S(=O)(=O)N2CCc3ccccc32)cc1C(=O)Nc1cccnc1`, the AC40 is 16.3 µM. As to `Cc1cccn2cc(CNS(=O)(=O)c3ccc4ccccc4c3)nc12`, the AC40 was 2.91 µM. As to `Cc1cccc(C(C)C)c1NC(=O)COC(=O)c1cccc(S(=O)(=O)N2CCc3ccccc3C2)c1`, the AC40 is 6.65 µM.
